Among the data in patent publication US4666916A, “Hexahydro-(1)-benzo-(pyrano and thiopyrano) (4,3-C)pyridines, useful as serotin-2 blocking agents” (Ciba-Geigy Corporation, priority 1985, dated 1987) are IC50 and ED50 values, retold here.

What is called IC50 is the concentration that gives 50% inhibition. Low values mean inhibition by little substance, high ones a need for much substance. The term ED50 denotes the dose at which the effect has come halfway, by size or by number of responders. The low end stands for an effect at a small dose, the high end for a need for a large dose.

Test [1] concerns the target T1, serotonin-2 (HT-2) receptor (Rattus norvegicus, UniProt P14842).
T1 construct: membrane preparations of frontal/parietal cortex from male Sprague-Dawley rats; from tissue; host or cells: rat frontal/parietal cortex membranes (male Sprague-Dawley)
The test is described as follows: serotonin-2 (HT-2) receptor binding, inhibition of specific binding of ^3 H-ketanserin in frontal/parietal cortex membranes. The arrangement: species or system male Sprague-Dawley rats. The settings on record: specific binding of ^3 H-ketanserin (0.4 nM). As to the method:
The serotonin-2 (HT-2) receptor binding properties, indicative of the serotonin-2 antagonist activity of the compounds of the invention, are determined in vitro by determining their ability to inhibit the specific binding of ^3 H-ketanserin, essentially as described by Battaglia et al in Life Sciences 33, 2011 (1983), in membrane preparations of frontal/parietal cortex from male Sprague-Dawley rats (200-225 g). IC50 values, representing the concentration of compound required to displace 50% of specific binding of 0.4 nM of ^3 H-ketanserin, are determined by log-logit analysis of the specific binding data. Selectivity for the HT-2 receptors can be determined by also measuring specific binding to serotonin-1 (HT-1) receptors, e.g. according to Middlemiss, D. N. and Fozard, J. R. in Eur. J. Pharmacol. 90, 151 (1980).

The target of test [2] is T2, serotonin-2 receptor (Rattus norvegicus, UniProt P14842).
T2 construct: Male Wistar rats (120-180 g) are fasted for 18 hr prior to testing; from tissue; host or cells: whole living animal (male Wistar rat), endogenous receptor of the central nervous system
T2 sequence (P14842 whole entry): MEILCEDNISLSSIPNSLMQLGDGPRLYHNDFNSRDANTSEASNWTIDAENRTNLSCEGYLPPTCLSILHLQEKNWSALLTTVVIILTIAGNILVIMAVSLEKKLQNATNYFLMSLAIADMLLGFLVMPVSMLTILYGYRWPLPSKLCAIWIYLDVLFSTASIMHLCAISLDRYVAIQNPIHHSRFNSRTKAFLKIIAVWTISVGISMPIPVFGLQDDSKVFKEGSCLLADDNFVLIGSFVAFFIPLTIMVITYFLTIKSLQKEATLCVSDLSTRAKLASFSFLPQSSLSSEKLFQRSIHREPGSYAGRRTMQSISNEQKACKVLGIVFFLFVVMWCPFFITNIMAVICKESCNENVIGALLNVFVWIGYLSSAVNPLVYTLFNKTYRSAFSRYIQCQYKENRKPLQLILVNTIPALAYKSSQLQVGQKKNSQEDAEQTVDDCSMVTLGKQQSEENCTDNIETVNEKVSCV
As to the kind of experiment: head twitch test, inhibition of the head twitch induced by 5-hydroxytryptophane in the rat. In kind it is in vivo, Male Wistar rats. As to the method:
The serotonin-2 antagonism or blockade is determined in vivo by measuring the inhibition of the head twitch induced by 5-hydroxytryptophane (the metabolic precursor of serotonin) in the rat. The head twitch test for assessing central nervous system serotonin-2 receptor antagonism in the rat is described in Neuropharmacology 16, 663 (1977) and in J. Pharmacol. Exp. Ther. 228, 133 (1984). The test is carried out as follows:
Male Wistar rats (120-180 g) are fasted for 18 hr prior to testing but allowed water ad libitum. All animals are pretreated with the peripheral decarboxylase inbihitor alpha-methyl-DOPA hydrazine (carbidopa 25 mg/kg i.p., 4.0 ml/kg) followed 30 min later by 5-hydroxytryptophan (5HTP 100 mg/kg s.c., 4.0 ml/kg). Ninety minutes after receiving 5HTP, the rats are placed individually in plexiglas observation cages and the frequency of head twitches for each animal is counted over a 10 min observation period. The test compound or vehicle is administered at either 0.5 hr at 1.0 ml/kg i.p. or at 1, 2 or 4 hr at 10 ml/kg p.o. prior to the observation period. ED50 values are determined by probit analysis.

The structures appear in SMILES notation.

T1 sequence (P14842 whole entry): as above

`CCSC[C@H]1CN(C)C[C@H]2c3cc(OC)cc(Br)c3OC[C@H]12` (relative stereo) [Example 4, (±)-[4R*,4aS*,10bR*]-7-Bromo-4-(ethylthiomethyl)-1,3,4,4a,5,10b-hexahydro-9-methoxy-2-methyl-2H-[1]benzopyrano[4,3-c]pyridine] yielded an IC50 in test [1] of 22 nM. Besides, the ED50 in test [2] (0.5 h, ip (at 30 minutes)) was determined as 1.1 mg/kg; in test [2] (po (at 1 hour)), 0.71 mg/kg.
